Active and inactive are the calls of the source.
Columns and labels:
[1] = Luminescence Cell-Based Dose Confirmation HTS to Identify Inhibitors of Platelet Dense Granule Release. [Related pubchem assays: 1663 (Primary HTS), 1678 (Summary of Project)]; assay type: functional
[2] = biological target: Luciferin 4-monooxygenase (Photinus pyralis, UniProt P08659); assay: inhibition of purified Photinus pyralis luciferase – biochemical, luminescence, dose response (AID 1891)
[3] = reduction of Shn3 3'UTR-driven luciferase in osteoblasts – cell-based, Clone20 osteoblasts, firefly luciferase, cherry-picked, dose response (AID 624132); assay type: functional;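 note: firefly luciferase luminescence from reporter carrying the Shn3 3'UTR in osteoblasts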
[4] = non-specific 3'UTR reporter inhibition in Clone20-Shn3RL – cell-based, Renilla luciferase, cherry-picked, counter-screen for Shn3 inhibitor project, dose response (AID 624133); assay type: functional
HEK293 [5] = assay: inhibition of NOD1-driven NF-kB reporter – cell-based, luminescence, uHTS, primary screen (AID 1578); assay type: functional; details: Homo sapiens
[6] = loss of viability in HepG2 cells – cell-based, CellTiter-Glo, cherry-picked, cytotoxicity control for Shn3 inhibitor project, dose response (AID 624134); assay type: functional
HEK293 [7] = assay: cells; assay type: functional, cell-based; details: Homo sapiens
HEK293 [8] = assay: cells; assay type: functional, cell-based; details: Homo sapiens; remark: listed apart in the source
HEK293 [9] = assay: NOD2 signaling inhibitors in MDP-stimulated cells, cell-based, uHTS, luminescence (AID 2001); assay type: functional; details: Homo sapiens
[10] = P. falciparum Dd2 growth inhibitors, dose response, SYBR Green, cherry-picked samples (AID 1159567); assay type: functional, cell-based
[11] = toxicity to human hepatoma HepG2 cells – cell-based, cherry-picked samples, cytotoxicity control, dose response (AID 1159577); assay type: functional
[12] = biological target: Induced myeloid leukemia cell differentiation protein Mcl-1 (Homo sapiens, UniProt Q07820); assay type: functional
Genome polyprotein = Genome polyprotein (dengue virus type 2, UniProt P29990); assay: flavivirus cap methylation enzyme inhibition – biochemical, confirmation dose response, primary screen (AID 588689); assay type: functional
[13] = biological target: T1, Polyadenylate-binding protein 1 (Homo sapiens, UniProt P11940); assay: MLLE binding blockers, Cy5 peptide tracer – biochemical, fluorescence polarization, Cy5-PAM2 peptide, secondary, miRNA deadenylation inhibitor project, dose response (AID 602260); assay type: functional; details: read-out: IC50_Mean
[14] = biological target: T2, Replicative DNA helicase DnaB (Mycobacterium tuberculosis, UniProt P9WMR3); assay: DnaB intein splicing inhibitors, dose response, biochemical, cell-free fluorescence (AID 449749); assay type: functional
T2 sequence (P9WMR3 whole entry): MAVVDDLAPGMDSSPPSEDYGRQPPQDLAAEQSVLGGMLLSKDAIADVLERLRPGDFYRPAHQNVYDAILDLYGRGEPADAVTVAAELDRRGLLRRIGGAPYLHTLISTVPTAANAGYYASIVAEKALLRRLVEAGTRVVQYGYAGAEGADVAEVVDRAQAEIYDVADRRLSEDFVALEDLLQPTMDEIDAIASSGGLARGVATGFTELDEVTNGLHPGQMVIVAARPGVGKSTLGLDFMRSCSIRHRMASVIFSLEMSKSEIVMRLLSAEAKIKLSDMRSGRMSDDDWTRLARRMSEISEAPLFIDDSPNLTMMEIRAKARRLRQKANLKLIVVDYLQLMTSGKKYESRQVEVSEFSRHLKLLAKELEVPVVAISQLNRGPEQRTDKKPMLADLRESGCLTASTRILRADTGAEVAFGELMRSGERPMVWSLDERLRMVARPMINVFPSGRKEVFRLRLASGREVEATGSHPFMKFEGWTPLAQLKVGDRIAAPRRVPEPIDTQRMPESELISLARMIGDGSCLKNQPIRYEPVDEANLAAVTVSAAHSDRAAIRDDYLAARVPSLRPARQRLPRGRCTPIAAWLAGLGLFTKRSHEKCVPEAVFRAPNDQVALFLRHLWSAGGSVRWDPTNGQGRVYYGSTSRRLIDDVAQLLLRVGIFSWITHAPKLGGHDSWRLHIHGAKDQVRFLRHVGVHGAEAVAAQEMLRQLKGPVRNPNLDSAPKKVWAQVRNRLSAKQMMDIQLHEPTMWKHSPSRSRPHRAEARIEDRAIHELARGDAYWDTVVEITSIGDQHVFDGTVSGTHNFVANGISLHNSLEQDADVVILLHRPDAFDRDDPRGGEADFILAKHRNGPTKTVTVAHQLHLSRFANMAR

[15] = biological target: T3, Histone-lysine N-methyltransferase NSD2 (Homo sapiens, UniProt O96028); assay type: biochemical
T3 sequence (O96028 whole entry): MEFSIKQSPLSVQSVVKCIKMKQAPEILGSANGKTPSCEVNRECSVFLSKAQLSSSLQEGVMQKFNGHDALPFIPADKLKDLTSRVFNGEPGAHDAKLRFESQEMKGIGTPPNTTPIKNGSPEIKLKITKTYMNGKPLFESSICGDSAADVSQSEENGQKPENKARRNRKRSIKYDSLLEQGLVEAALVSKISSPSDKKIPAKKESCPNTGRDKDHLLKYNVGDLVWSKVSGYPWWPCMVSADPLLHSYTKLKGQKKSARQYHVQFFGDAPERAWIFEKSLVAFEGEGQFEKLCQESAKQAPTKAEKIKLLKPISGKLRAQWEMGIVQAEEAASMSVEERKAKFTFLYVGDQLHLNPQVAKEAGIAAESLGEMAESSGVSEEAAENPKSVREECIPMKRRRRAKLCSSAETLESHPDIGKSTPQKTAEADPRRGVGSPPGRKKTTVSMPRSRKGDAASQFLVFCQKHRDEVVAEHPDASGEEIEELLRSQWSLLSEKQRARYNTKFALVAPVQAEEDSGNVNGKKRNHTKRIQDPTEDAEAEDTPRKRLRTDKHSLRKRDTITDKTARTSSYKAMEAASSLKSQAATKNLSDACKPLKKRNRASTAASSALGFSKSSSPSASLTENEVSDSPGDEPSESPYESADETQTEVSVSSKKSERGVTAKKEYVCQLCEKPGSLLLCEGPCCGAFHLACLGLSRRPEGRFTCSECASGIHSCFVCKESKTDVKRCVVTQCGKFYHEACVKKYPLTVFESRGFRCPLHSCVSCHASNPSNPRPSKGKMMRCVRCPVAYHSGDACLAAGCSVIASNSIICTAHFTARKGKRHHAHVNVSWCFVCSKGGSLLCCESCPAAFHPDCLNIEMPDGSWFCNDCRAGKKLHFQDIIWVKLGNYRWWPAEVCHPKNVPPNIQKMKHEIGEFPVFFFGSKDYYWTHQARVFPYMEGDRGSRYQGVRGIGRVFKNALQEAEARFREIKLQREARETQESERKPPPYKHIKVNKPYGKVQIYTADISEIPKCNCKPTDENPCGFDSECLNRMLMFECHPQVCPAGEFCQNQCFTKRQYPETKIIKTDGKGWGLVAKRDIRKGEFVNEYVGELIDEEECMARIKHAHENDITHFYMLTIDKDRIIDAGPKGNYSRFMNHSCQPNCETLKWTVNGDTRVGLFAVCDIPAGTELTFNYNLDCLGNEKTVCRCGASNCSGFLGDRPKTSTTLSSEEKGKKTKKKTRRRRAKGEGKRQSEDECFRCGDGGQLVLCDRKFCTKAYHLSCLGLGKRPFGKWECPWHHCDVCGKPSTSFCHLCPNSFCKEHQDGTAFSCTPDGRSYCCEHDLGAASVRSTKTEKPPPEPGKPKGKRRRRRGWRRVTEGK

[16] = biological target: T1, Polyadenylate-binding protein 1; assay: MLLE domain peptide-binding blockers, IC50 – biochemical, fluorescence polarization, FITC-PAM2 peptide, dose response (AID 602259); assay type: functional; details: read-out: IC50_Mean
Protein RecA = biological target: T4, Protein RecA (Mycobacterium tuberculosis, UniProt P9WHJ3); assay: Fluorescence Cell-Free Homogeneous Dose Retest to Identify Inhibitors of RecA-Intein Splicing Activity. [Related pubchem assays (depositor defined):AID2097, AID2223, AID489010, AID492950]; assay type: functional
T4 sequence (P9WHJ3 whole entry): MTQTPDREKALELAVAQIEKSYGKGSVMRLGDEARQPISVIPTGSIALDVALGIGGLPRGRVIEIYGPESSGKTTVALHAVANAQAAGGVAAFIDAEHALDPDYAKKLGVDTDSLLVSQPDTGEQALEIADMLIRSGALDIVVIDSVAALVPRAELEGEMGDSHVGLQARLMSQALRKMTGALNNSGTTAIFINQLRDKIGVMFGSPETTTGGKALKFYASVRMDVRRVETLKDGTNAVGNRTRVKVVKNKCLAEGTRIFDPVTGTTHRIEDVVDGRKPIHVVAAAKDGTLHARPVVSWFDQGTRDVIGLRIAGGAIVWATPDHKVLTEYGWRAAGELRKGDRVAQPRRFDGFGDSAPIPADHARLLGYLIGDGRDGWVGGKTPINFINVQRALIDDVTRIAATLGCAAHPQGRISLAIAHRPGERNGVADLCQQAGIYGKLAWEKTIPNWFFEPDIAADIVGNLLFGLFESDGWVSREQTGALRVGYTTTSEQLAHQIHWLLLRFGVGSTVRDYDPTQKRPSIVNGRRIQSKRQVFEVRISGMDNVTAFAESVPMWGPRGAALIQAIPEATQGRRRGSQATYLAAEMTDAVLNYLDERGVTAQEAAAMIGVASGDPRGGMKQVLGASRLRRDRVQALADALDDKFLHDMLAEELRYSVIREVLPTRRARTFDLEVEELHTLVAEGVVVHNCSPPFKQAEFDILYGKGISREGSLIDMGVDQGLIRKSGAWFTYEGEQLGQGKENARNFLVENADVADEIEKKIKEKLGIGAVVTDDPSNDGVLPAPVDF

[17] = viability loss in HEK293 cells – cell-based, plate reader, cherry-picked samples, cytotoxicity control, dose response (AID 743446); assay type: functional
[18] = toxicity toward HepG2 liver cells – cell-based, plate reader, cherry-pick, antagonist series, cytotoxicity control, dose response (AID 743416); assay type: functional
[19] = biological target: T5, Heat shock factor protein 1 (Mus musculus, UniProt P38532); assay: decrease of HSF1-responsive luciferase luminescence – cell-based, NIH3T3, dose retest, confirmation (AID 2382); assay type: functional;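 note: NIH3T3 fibroblasts with HSF1-driven luciferase reporter stressed by proteasome inhibitor MG132; luminescence from HSF1-driven luciferase expression after 8 hours of MG132 stress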
T5 sequence (P38532 whole entry): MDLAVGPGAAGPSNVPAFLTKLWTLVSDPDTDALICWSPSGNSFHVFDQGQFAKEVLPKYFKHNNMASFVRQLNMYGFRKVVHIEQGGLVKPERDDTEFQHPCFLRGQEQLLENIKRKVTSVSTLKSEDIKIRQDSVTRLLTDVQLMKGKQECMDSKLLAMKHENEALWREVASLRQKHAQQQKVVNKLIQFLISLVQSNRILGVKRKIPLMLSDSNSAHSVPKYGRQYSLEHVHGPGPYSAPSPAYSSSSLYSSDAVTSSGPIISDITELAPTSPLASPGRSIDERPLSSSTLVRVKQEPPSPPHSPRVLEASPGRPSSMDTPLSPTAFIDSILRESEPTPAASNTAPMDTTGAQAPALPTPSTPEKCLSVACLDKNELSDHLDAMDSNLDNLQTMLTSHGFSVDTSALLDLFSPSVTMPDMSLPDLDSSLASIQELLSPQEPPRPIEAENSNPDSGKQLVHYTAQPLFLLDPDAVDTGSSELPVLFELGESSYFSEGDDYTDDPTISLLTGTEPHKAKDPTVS

[20] = Luminescence Cell-Based Dose Retest to Confirm Inhibitors of Cancer Stem Cells. [Related pubchem assays (depositor defined):AID2717, AID2721]; assay type: functional; details: Homo sapiens
[21] = biological target: Glyceraldehyde-3-phosphate dehydrogenase (Homo sapiens, UniProt P04406)
Sequence of Glyceraldehyde-3-phosphate dehydrogenase (P04406 whole entry): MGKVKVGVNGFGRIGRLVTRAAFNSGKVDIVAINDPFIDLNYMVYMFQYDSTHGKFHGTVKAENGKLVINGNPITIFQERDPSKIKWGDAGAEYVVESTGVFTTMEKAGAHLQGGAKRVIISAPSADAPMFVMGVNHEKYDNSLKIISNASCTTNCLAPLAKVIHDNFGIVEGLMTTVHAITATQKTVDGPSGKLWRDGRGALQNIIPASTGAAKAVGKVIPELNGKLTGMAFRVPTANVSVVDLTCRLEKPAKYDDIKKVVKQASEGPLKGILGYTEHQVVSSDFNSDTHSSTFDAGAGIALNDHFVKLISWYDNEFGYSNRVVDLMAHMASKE

Sequence of Luciferin 4-monooxygenase (P08659 whole entry): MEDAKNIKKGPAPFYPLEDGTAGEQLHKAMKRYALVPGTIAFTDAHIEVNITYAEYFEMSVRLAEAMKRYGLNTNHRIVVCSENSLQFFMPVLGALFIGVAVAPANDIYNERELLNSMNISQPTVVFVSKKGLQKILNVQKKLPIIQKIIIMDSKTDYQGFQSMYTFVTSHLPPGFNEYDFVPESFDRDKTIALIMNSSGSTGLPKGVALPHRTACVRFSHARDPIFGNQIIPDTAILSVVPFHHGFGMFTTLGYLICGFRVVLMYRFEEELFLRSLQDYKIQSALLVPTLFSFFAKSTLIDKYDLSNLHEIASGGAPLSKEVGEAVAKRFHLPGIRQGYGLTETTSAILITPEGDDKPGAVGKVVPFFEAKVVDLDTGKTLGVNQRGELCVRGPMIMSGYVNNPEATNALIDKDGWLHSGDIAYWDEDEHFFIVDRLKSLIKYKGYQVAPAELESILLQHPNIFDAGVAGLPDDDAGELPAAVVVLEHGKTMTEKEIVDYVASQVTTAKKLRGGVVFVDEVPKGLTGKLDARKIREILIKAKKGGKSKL
T1 sequence (P11940 whole entry): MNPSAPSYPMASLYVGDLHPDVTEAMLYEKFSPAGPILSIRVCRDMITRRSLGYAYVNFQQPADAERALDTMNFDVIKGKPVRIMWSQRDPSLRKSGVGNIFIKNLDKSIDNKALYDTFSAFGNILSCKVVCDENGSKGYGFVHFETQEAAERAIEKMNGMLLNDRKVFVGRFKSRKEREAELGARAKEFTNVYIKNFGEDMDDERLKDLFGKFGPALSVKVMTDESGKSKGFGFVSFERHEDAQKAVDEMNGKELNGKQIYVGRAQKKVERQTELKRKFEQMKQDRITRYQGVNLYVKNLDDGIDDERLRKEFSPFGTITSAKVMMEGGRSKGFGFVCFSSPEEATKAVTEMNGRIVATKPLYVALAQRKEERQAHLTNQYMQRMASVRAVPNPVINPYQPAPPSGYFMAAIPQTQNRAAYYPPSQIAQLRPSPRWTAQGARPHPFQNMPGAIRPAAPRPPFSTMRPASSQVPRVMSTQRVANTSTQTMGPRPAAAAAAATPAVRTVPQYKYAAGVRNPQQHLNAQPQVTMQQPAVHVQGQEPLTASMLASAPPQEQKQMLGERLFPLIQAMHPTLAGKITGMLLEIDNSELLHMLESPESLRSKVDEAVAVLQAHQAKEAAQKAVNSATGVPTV
Sequence of Genome polyprotein (P29990 2492-3391 limits assumed): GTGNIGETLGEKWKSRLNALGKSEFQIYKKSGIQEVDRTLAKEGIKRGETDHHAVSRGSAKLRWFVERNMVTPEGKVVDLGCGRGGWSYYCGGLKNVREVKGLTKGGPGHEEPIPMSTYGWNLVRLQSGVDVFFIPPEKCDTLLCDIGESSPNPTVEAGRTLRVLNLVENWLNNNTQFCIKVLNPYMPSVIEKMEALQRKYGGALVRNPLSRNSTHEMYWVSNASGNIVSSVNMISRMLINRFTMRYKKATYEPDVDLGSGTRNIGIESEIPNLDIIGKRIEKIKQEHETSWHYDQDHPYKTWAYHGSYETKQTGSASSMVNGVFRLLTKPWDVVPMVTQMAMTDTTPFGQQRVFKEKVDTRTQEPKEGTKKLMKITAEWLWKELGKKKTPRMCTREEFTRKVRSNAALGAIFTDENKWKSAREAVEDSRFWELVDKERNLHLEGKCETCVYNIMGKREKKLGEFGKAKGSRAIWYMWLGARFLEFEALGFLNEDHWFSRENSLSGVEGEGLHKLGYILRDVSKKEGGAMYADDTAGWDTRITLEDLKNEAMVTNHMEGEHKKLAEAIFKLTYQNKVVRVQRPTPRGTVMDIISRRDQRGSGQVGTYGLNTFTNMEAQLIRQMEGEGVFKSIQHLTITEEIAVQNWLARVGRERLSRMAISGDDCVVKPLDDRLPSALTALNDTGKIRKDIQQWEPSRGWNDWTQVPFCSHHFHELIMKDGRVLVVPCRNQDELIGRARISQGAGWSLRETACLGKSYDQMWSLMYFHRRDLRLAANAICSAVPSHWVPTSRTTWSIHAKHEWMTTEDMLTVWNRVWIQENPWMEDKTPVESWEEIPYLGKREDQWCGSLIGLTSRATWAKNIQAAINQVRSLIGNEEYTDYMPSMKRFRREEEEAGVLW
Sequence of Induced myeloid leukemia cell differentiation protein Mcl-1 (Q07820 whole entry): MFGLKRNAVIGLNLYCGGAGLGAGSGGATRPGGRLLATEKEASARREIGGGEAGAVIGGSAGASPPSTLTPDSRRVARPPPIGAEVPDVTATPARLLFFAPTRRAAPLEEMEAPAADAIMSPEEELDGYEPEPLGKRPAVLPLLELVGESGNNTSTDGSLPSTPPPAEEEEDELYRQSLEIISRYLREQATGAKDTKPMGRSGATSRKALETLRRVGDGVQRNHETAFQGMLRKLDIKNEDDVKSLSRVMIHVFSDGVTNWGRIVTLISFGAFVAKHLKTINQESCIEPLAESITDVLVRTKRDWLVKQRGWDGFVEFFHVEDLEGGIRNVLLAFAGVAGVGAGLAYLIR

## Cc1cc2c(cc1C)NC(c1ccccn1)C1=C(O)CC(C)(C)CC1=N2 (stereo unspecified)
[1]
  EC50: > 112 µM (not active)
[2]
  EC50: > 112 µM (not active)

## O=C(c1cc(COc2c(F)cccc2F)on1)N1CCC(c2ccncc2)CC1
[3]
  AC50: 1.6 µM (active)
[4]
  AC50: 2.31 µM (active)
HEK293 [5]
  EC50: 2.64 µM (active)
[6]
  AC50: 6.75 µM (active)
HEK293 [7]
  IC50: 9.14 µM (active)
HEK293 [8]
  IC50: > 20 µM (inactive)
HEK293 [9]
  IC50: 17.1 µM (inactive)

## C[C@@H]1CN([C@@H](C)CO)C(=O)c2c(c3ccccc3n2C)-c2ccccc2CO[C@@H]1CN(C)Cc1cccc(C(F)(F)F)c1
[10]
  AC50: 1.64 µM (active)
[11]
  AC50: 14 µM (active)

## CC(NS(C)(=O)=O)C(c1cccs1)N1CCN(Cc2ccccc2)CC1 (stereo unspecified)
[1]
  EC50: > 112 µM (not active)
[2]
  EC50: > 112 µM (not active)

## CC(=O)c1cc(O)c2ccccc2c1O
[12]
  IC50: 5.99 µM (active)
Genome polyprotein
  IC50: 29.7 µM (active)
[13]
  IC50: > 66 µM (inactive)
[14]
  AC50: > 380 µM (inactive)
[15]
  AC50: 10.6 µM (active)
[16]
  IC50: > 66 µM (inactive)
Protein RecA
  EC50: 2.82 µM (active)

## O=S(=O)(Nc1ccc(O)c2ccccc12)c1ccc(OC(F)(F)F)cc1
[17]
  AC50: 24.9 µM (active)
[18]
  AC50: > 52 µM (inactive)
[19]
  EC50: > 195 µM (not active)
[14]
  AC50: 0.26 µM (active)
Protein RecA
  EC50: 0.0666 µM (active)
[20]
  AC50: 6.55 µM (active)

## C[C@@H]1CN(C2=C(Cl)C(=O)N(c3ccc(Cl)nc3)C2=O)CCN1
[21]
  IC50: > 50 µM (inconclusive)

## COc1ccc(S(=O)(=O)N2CCCCN3[C@@H](CO)[C@@H](c4ccc(C#CCC(C)C)cc4)[C@@H]3C2)cc1
[10]
  AC50: 1.63 µM (active)
[11]
  AC50: 18.9 µM (active)

## CN(C)CCN(Cc1ccccc1)S(=O)(=O)c1ccc(-c2ccc(O)nn2)s1
[1]
  EC50: 6.77 µM (active)
[2]
  EC50: > 112 µM (not active)

## CO[C@@H]1CN(C)C(=O)c2cc(NC(=O)c3ccc(Oc4ccccc4)cc3)ccc2OC[C@@H](C)NC[C@@H]1C
[11]
  AC50: 20.7 µM (active)

## Cc1ccc(NC(=O)COc2ccc(C(=O)NCCc3ccccc3)cc2)cc1
[1]
  EC50: > 112 µM (not active)
[2]
  EC50: > 112 µM (not active)

## C[C@H](CO)N1C[C@H](C)[C@@H](CN(C)Cc2ccc3c(c2)OCO3)Oc2ccc(NC(=O)Nc3ccc4c(c3)OCO4)cc2CC1=O
[10]
  AC50: 4.28 µM (active)
[11]
  AC50: > 42 µM (inactive)
